A short description of data set [1]: log P determination by HPLC on reversed-phase column (C18), EEC Directive 79/831 Annex V.A8, acidic (formic acid). It is filed as physicochemical. To be noted: HPLC method a), acetonitrile/water with formic acid. Here is the method:
^1 The stated mass is the peak of the isotope pattern of the [M+H]^+ ion of the highest intensity; if the [M-H]^- ion was detected, the stated mass is identified with ^2. ^2 The stated mass is the peak of the isotope pattern of the [M-H]^- ion of the highest intensity. ^a) Note regarding the determination of the log P values and mass detection: The determination of the given log P values was carried out in accordance with EEC Directive 79/831 Annex V.A8 by HPLC (High Performance Liquid Chromatography) on a reversed-phase column (C18). […] Mass detection is effected by means of an […] system. ^b) Note regarding the determination of the retention time and mass detection: The stated retention times were determined on a reversed-phase column (C18) Shimadzu LCMS 2020; 50*3.0 Shimadzu shim-pack XR-ODS 2.2 micron; mobile phase A: water (0.05% TFA); mobile phase B: acetonitrile; linear gradient from 5% acetonitrile to 95% acetonitrile in 6.00 min, then 95% acetonitrile for a further 1.1 min; oven temperature 40° C.; flow rate: 1.0 ml/min. ^c) Note regarding the determination of the retention time and mass detection: Instrument: Waters ACQUITY SQD UPLC system; column. Waters Acquity UPLC HSS T3 1.8μ 50×1 mm; mobile phase A: 1 l of water+0.25 ml of 99% strength formic acid, mobile phase B: 1 l of acetonitrile+0.25 ml of 99% strength formic acid; gradient: 0.0 min 90% A→1.2 min 5% A→2.0 min 5% A oven: 50° C.; flow rate: 0.40 ml/min; UV detection: 208-400 nm. ^d) Note regarding the determination of the retention time and mass detection: […] The determination of the given log P values was carried out in accordance with EEC Directive 79/831 Annex V.A8 by HPLC (High Performance Liquid Chromatography) on a reversed-phase column (C18). […] Mass detection is effected by means of an […] system.

For the next data set, the system named is Phaedon cochleariae. The experiment in a line: Phaedon cochleariae spray test. To be noted: larvae on Chinese cabbage leaf discs, after 7 days.
Another data set deals with Spodoptera frugiperda. The experiment in a line: Spodoptera frugiperda spray test. It is filed as in vivo. To be noted: 500 g/ha, caterpillars on maize leaf discs, after 7 days. The text has this: Solvent: 78.0 parts by weight of acetone

A word on the logP: it is the decadic logarithm of the partition coefficient of the neutral form, usually between octanol and water. High values mean higher lipophilicity, low ones lower lipophilicity. The term chromatographic logP denotes lipophilicity estimated from chromatographic retention.

In the case of `CCn1nc(-c2c(C(F)(F)F)c(C(F)(F)C(F)(F)F)nn2C)nc1-c1ccc(Cl)c(C(=O)Nc2ccccc2)c1` [Ibh-13], the logP in data set [1] came to 4.73.

In turn, `CC(C)n1nc(-c2c(C(F)(F)F)c(C(F)(F)C(F)(F)F)nn2C)nc1-c1ccc(Cl)c(C(=O)NCc2ccccc2)c1` [Ibh-9] registered a logP in data set [1] of 4.98.

In the case of `CN(C(=O)c1cccc(-c2cc(-c3c(C(F)(F)F)c(C(F)(F)C(F)(F)F)nn3C)nn2C)c1)C1CC1` [Iax-1, N-cyclopropyl-3-[1,2′-dimethyl-5′-(pentafluoroethyl)-4′-(trifluoromethyl)-1H,2′H-3,3′-bipyrazol-5-yl]-N-methylbenzamide], the chromatographic logP in data set [1] came out at 4.13. In the data set on Phaedon cochleariae (100 g/ha), this compound returned an efficacy of 100%.

Regarding `Cn1nc(C(F)(F)C(F)(F)F)c(C(F)(F)F)c1-c1nc(-c2ccc(Cl)c(C(=O)Nc3ccc(F)cc3)c2)ns1` [Ibd-2], the logP in data set [1] turned out to be 5.17.

Regarding `Cn1nc(-c2c(C(F)(F)F)c(C(F)(F)C(F)(F)F)nn2C)nc1-c1cccc(C(=O)NCc2ccccc2)c1` [Ibh-2, N-benzyl-3-{1-methyl-3-[1-methyl-3-(pentafluoroethyl)-4-(trifluoromethyl)-1H-pyrazol-5-yl]-1H-1,2,4-triazol-5-yl}benzamide], the chromatographic logP in data set [1] stood at 4.16.

Compound `CCn1nc(-c2ccc(Cl)c(C(=O)NCc3ccccc3)c2)nc1-c1c(C(F)(F)F)c(C(F)(F)C(F)(F)F)nn1C` [Ibg-9] returned a logP in data set [1] of 4.71. This compound gave an efficacy in the data set on Phaedon cochleariae (500 g/ha) of 100%.

With `Cn1nc(-c2ccc(Cl)c(C(=O)NCc3ccccc3)c2)nc1-c1c(C(F)(F)F)c(C(F)(F)C(F)(F)F)nn1C` [Ibg-10], in data set [1], the logP is recorded as 4.43.

Turning to `CC(C)n1nc(-c2c(C(F)(F)F)c(C(F)(F)C(F)(F)F)nn2C)nc1-c1ccc(Cl)c(C(=O)NCC(F)(F)F)c1` [Ibh-7], the logP in data set [1] amounted to 4.68.

With `CN(C(=O)c1cccc(-c2cc(-c3c(C(F)(F)F)c(C(F)(F)C(F)(F)F)nn3C)n(C)n2)c1)C1CC1` [Iaw-1, N-cyclopropyl-3-[2,2′-dimethyl-5′-(pentafluoroethyl)-4′-(trifluoromethyl)-2H,2′H-3,3′-bipyrazol-5-yl]-N-methylbenzamide], the chromatographic logP in data set [1] was 3.94.

Regarding `Cn1nc(C(F)(F)C(F)(F)F)c(C(F)(F)F)c1-c1ncc(-c2cccc(C(=O)NC3(C#N)CC3)c2)s1` [Iaq-1, N-(1-cyanocyclopropyl)-3-{2-[1-methyl-3-(pentafluoroethyl)-4-(trifluoromethyl)-1H-pyrazol-5-yl]-1,3-thiazol-5-yl}benzamide], in data set [1], the chromatographic logP was found to be 3.93. For the same compound, the efficacy in the data set on Phaedon cochleariae (100 g/ha) worked out at 100%.

With `Cn1nc(-c2ccc(Cl)c(C(=O)NC3CC3)c2)nc1-c1c(C(F)(F)F)c(C(F)(F)C(F)(F)F)nn1C` [Ibg-7], the logP in data set [1] is listed as 3.80. In addition, the efficacy in the data set on Phaedon cochleariae (500 g/ha) is listed as 100%.

The compound `CCn1nc(-c2c(C(F)(F)F)c(C(F)(F)C(F)(F)F)nn2C)nc1-c1ccc(Cl)c(C(=O)NCC(F)(F)F)c1` [Ibh-5] had a logP in data set [1] of 4.32. The efficacy with Phaedon cochleariae (500 g/ha) worked out at 100%.

As to `Cn1nc(-c2c(C(F)(F)F)c(C(F)(F)C(F)(F)F)nn2C)nc1-c1ccc(Cl)c(C(=O)NC2CC2)c1` [Ibh-8], the logP in data set [1] is on record as 3.67. The results for the efficacy in the data set with Phaedon cochleariae (500 g/ha) and in the data set on Spodoptera frugiperda were 100% and 83%, respectively.

As to `Cn1nc(-c2c(C(F)(F)F)c(C(F)(F)C(F)(F)F)nn2C)nc1-c1ccc(Cl)c(C(=O)Nc2ccccc2)c1` [Ibh-14], the logP in data set [1] is listed as 4.42.

As to `CC(C)n1nc(-c2ccc(Cl)c(C(=O)NC3CC3)c2)nc1-c1c(C(F)(F)F)c(C(F)(F)C(F)(F)F)nn1C` [Ibg-13], in data set [1], the logP is 4.35. Also, the efficacy with Phaedon cochleariae (500 g/ha) turned out to be 100%.

Consider `Cn1nc(-c2ccc(Cl)c(C(=O)Nc3ccccc3)c2)nc1-c1c(C(F)(F)F)c(C(F)(F)C(F)(F)F)nn1C` [Ibg-14], for which, in data set [1], the logP is 4.56.

As to `Cn1nc(C(F)(F)C(F)(F)F)c(C(F)(F)F)c1-c1nnc(-c2ccc(Cl)c(C(=O)NCC(F)(F)F)c2)[nH]1` [Ibi-2], in data set [1], the logP amounted to 3.73.

As for `Cn1nc(-c2ccc(Cl)c(C(=O)NCC(F)(F)F)c2)nc1-c1c(C(F)(F)F)c(C(F)(F)C(F)(F)F)nn1C` [Ibg-4], the logP in data set [1] was found to be 4.14.

In data set [1], `Cn1nc(C(F)(F)C(F)(F)F)c(C(F)(F)F)c1-c1noc(-c2ccc(Cl)c(C(=O)Nc3ccc(F)cc3)c2)n1` [Ibe-3] had a logP of 4.91. The compound further showed an efficacy in the data set on Phaedon cochleariae (500 g/ha) of 100%.

The compound `Cn1nc(C(F)(F)C(F)(F)F)c(C(F)(F)F)c1-c1nnc(-c2ccc(Cl)c(C(=O)NCc3ccccc3)c2)[nH]1` [Ibi-1] had a logP in data set [1] of 4.00.

`CCn1nc(-c2c(C(F)(F)F)c(C(F)(F)C(F)(F)F)nn2C)nc1-c1ccc(Cl)c(C(=O)NCc2ccccc2)c1` [Ibh-10]: in data set [1], the lipophilicity (logP) came to 4.59.

For the compound `Cn1nc(C(F)(F)C(F)(F)F)c(C(F)(F)F)c1-c1nnc(-c2ccc(Cl)c(C(=O)NC3CC3)c2)[nH]1` [Ibi-3], the logP in data set [1] was found to be 3.40.

`Cn1nc(C(F)(F)C(F)(F)F)c(C(F)(F)F)c1-c1cc(-c2ccc(Cl)c(C(=O)NCC(=O)NCC(F)(F)F)c2)no1` [Iap-6] yielded a logP in data set [1] of 3.87. Moreover, the efficacy in the data set with Phaedon cochleariae (100 g/ha) is reported as 100%.

Turning to `Cn1nc(-c2c(C(F)(F)F)c(C(F)(F)C(F)(F)F)nn2C)nc1-c1ccc(Cl)c(C(=O)NCc2ccccc2)c1` [Ibh-11], the logP in data set [1] is 4.29.

The compound `Cn1nc(C(F)(F)C(F)(F)F)c(C(F)(F)F)c1-c1nnc(-c2ccc(Cl)c(C(=O)Nc3ccccc3)c2)[nH]1` [Ibi-4] registered a logP in data set [1] of 4.13.

In data set [1], `Cn1nc(C(F)(F)C(F)(F)F)c(C(F)(F)F)c1-c1noc(-c2ccc(Cl)c(C(=O)NCc3ccccc3)c2)n1` [Ibe-2] had a logP of 4.76.

`Cn1nc(-c2cccc(C(=O)NCc3ccccc3)c2)nc1-c1c(C(F)(F)F)c(C(F)(F)C(F)(F)F)nn1C` [Ibg-15, N-benzyl-3-{1-methyl-5-[1-methyl-3-(pentafluoroethyl)-4-(trifluoromethyl)-1H-pyrazol-5-yl]-1H-1,2,4-triazol-3-yl}benzamide] registered a chromatographic logP in data set [1] of 4.24.

As to `CCn1nc(-c2ccc(Cl)c(C(=O)Nc3ccccc3)c2)nc1-c1c(C(F)(F)F)c(C(F)(F)C(F)(F)F)nn1C` [Ibg-12], the logP in data set [1] amounted to 4.85.

Take `Cn1nc(C(F)(F)C(F)(F)F)c(C(F)(F)F)c1-c1nc(-c2ccc(Cl)c(C(=O)NC3CC3)c2)ns1` [Ibd-3, 2-chloro-N-cyclopropyl-5-{5-[1-methyl-3-(pentafluoroethyl)-4-(trifluoromethyl)-1H-pyrazol-5-yl]-1,2,4-thiadiazol-3-yl}benzamide]: the efficacy in the data set with Phaedon cochleariae (500 g/ha) worked out at 100%.

`Cn1nc(C(F)(F)C(F)(F)F)c(C(F)(F)F)c1-c1ncc(-c2cccc(C(N)=O)c2)s1` [Iaq-2]: the logP in data set [1] stood at 3.38.

Take `CC(C)n1nc(-c2c(C(F)(F)F)c(C(F)(F)C(F)(F)F)nn2C)nc1-c1ccc(Cl)c(C(=O)Nc2ccccc2)c1` [Ibh-12]: the logP in data set [1] turned out to be 5.23.

In data set [1], `CC(C)n1nc(-c2ccc(Cl)c(C(=O)NCc3ccccc3)c2)nc1-c1c(C(F)(F)F)c(C(F)(F)C(F)(F)F)nn1C` [Ibg-8] had a logP of 4.93. The compound further showed an efficacy in the data set on Phaedon cochleariae (500 g/ha) of 100%.

`CCn1nc(-c2ccc(Cl)c(C(=O)NCC(F)(F)F)c2)nc1-c1c(C(F)(F)F)c(C(F)(F)C(F)(F)F)nn1C` [Ibg-6] came in with a lipophilicity (logP) in data set [1] of 4.41.

Regarding `Cn1nc(C(F)(F)C(F)(F)F)c(C(F)(F)F)c1-c1nc(-c2cccc(C(=O)NC3CC3)c2)n[nH]1` [Ibg-2], in data set [1], the logP is reported as 3.24.

For the compound `Cn1nc(C(F)(F)C(F)(F)F)c(C(F)(F)F)c1-c1nc(-c2ccc(Cl)c(C(=O)NCc3ccccc3)c2)ns1` [Ibd-1], in data set [1], the logP was found to be 5.00.

In the case of `CC(C)n1nc(-c2c(C(F)(F)F)c(C(F)(F)C(F)(F)F)nn2C)nc1-c1ccc(Cl)c(C(=O)NC2CC2)c1` [Ibh-6], in data set [1], the logP was 4.39. The compound also came in with an efficacy in the data set with Phaedon cochleariae (500 g/ha) of 100%.

`CC(C)n1nc(-c2ccc(Cl)c(C(=O)Nc3ccccc3)c2)nc1-c1c(C(F)(F)F)c(C(F)(F)C(F)(F)F)nn1C` [Ibg-11]: the log partition coefficient (logP) in data set [1] is given as 5.13.

Compound `Cn1nc(C(F)(F)C(F)(F)F)c(C(F)(F)F)c1-c1nc(-c2cccc(C(=O)NCc3ccccc3)c2)n[nH]1` [Ibg-1, N-benzyl-3-{5-[1-methyl-3-(pentafluoroethyl)-4-(trifluoromethyl)-1H-pyrazol-5-yl]-1H-1,2,4-triazol-3-yl}benzamide] displayed a chromatographic logP in data set [1] of 3.8.

As for `Cn1nc(C(F)(F)C(F)(F)F)c(C(F)(F)F)c1-c1nc(-c2cccc(C(=O)NCC(F)(F)F)c2)n[nH]1` [Ibg-3], in data set [1], the logP worked out at 3.54.

Turning to `Cn1nc(C(F)(F)C(F)(F)F)c(C(F)(F)F)c1-c1nnc(-c2cccc(C(=O)NC3CC3)c2)s1` [Iaj-1, N-cyclopropyl-3-{5-[1-methyl-3-(pentafluoroethyl)-4-(trifluoromethyl)-1H-pyrazol-5-yl]-1,3,4-thiadiazol-2-yl}benzamide], in data set [1], the chromatographic logP came to 3.72. Also, in the data set with Phaedon cochleariae (500 g/ha), the efficacy was 100%.

For the origin of these results see US10047076B2, “Halogen-substituted compounds” (BAYER CROPSCIENCE AKTIENGESELLSCHAFT, priority 2014, dated 2018).
